How the values were obtained:
Assay type in all cases: functional
[1] = system: Staphylococcus aureus; experiment: Antimicrobial activity against heterogeneous vancomycin-intermediate Staphylococcus aureus 873 by macrodilution method
[2] = system: Staphylococcus aureus; experiment: Antimicrobial activity against heterogeneous vancomycin-intermediate Staphylococcus aureus 168 by macrodilution method
[3] = system: Staphylococcus aureus; experiment: Antimicrobial activity against methicillin-susceptible Staphylococcus aureus 540 by macrodilution method
[4] = system: Staphylococcus aureus; experiment: Antimicrobial activity against heterogeneous vancomycin-intermediate Staphylococcus aureus 873 after 30 passages by macrodilution method
[5] = system: Staphylococcus aureus; experiment: Antimicrobial activity against methicillin-resistant Staphylococcus aureus 547 after 23 passages by macrodilution method
[6] = system: Staphylococcus aureus; experiment: Antimicrobial activity against vancomycin-resistant Staphylococcus aureus 509 after 50 passages by macrodilution method
[7] = system: Staphylococcus aureus; experiment: Antimicrobial activity against vancomycin-intermediate Staphylococcus aureus 555 measured after 10 antibiotic-free subculturing by macrodilution method
[8] = system: Staphylococcus aureus; experiment: Antimicrobial activity against methicillin-resistant Staphylococcus aureus 525 measured after 10 antibiotic-free subculturing by macrodilution method
[9] = system: Staphylococcus aureus; experiment: Antimicrobial activity against methicillin-susceptible Staphylococcus aureus 540 measured after 10 antibiotic-free subculturing by macrodilution method
[10] = system: Staphylococcus aureus; experiment: Antimicrobial activity against methicillin-susceptible Staphylococcus aureus 543 measured after 10 antibiotic-free subculturing by macrodilution method
[11] = system: Staphylococcus aureus; experiment: Antimicrobial activity against vancomycin-intermediate Staphylococcus aureus 555 measured on day 5 by macrodilution method; conditions: Staphylococcus aureus, 555, 120 h
[12] = system: Staphylococcus aureus; experiment: Antimicrobial activity against vancomycin-intermediate Staphylococcus aureus 1287 measured on day 5 by macrodilution method; conditions: Staphylococcus aureus, 1287, 120 h
[13] = system: Staphylococcus aureus; experiment: Antimicrobial activity against methicillin-resistant Staphylococcus aureus 525 measured on day 5 by macrodilution method; conditions: Staphylococcus aureus, 525, 120 h
[14] = system: Staphylococcus aureus; experiment: Antimicrobial activity against methicillin-resistant Staphylococcus aureus 547 measured on day 5 by macrodilution method; conditions: Staphylococcus aureus, 547, 120 h
[15] = system: Staphylococcus aureus; experiment: Antimicrobial activity against methicillin-susceptible Staphylococcus aureus 540 measured on day 5 by macrodilution method; conditions: Staphylococcus aureus, 540, 120 h
[16] = system: Staphylococcus aureus; experiment: Antimicrobial activity against vancomycin-resistant Staphylococcus aureus 510 measured on day 5 by macrodilution method; conditions: Staphylococcus aureus, 510, 120 h
[17] = system: Staphylococcus aureus; experiment: Antimicrobial activity against vancomycin-resistant Staphylococcus aureus 509 measured on day 5 by macrodilution method; conditions: Staphylococcus aureus, 509, 120 h
[18] = system: Staphylococcus aureus; experiment: Antimicrobial activity against vancomycin-intermediate Staphylococcus aureus 555 measured on day 10 by macrodilution method; conditions: Staphylococcus aureus, 555, 240 h
[19] = system: Staphylococcus aureus; experiment: Antimicrobial activity against vancomycin-intermediate Staphylococcus aureus 1287 measured on day 10 by macrodilution method; conditions: Staphylococcus aureus, 1287, 240 h
[20] = system: Staphylococcus aureus; experiment: Antimicrobial activity against methicillin-resistant Staphylococcus aureus 525 measured on day 10 by macrodilution method; conditions: Staphylococcus aureus, 525, 240 h
[21] = system: Staphylococcus aureus; experiment: Antimicrobial activity against methicillin-susceptible Staphylococcus aureus 540 measured on day 10 by macrodilution method; conditions: Staphylococcus aureus, 540, 240 h
[22] = system: Staphylococcus aureus; experiment: Antimicrobial activity against heterogeneous vancomycin-intermediate Staphylococcus aureus 873 measured on day 15 by macrodilution method; conditions: Staphylococcus aureus, 873, 360 h
[23] = system: Staphylococcus aureus; experiment: Antimicrobial activity against methicillin-susceptible Staphylococcus aureus 540 measured on day 15 by macrodilution method; conditions: Staphylococcus aureus, 540, 360 h
[24] = system: Staphylococcus aureus; experiment: Antimicrobial activity against vancomycin-resistant Staphylococcus aureus 510 measured on day 15 by macrodilution method; conditions: Staphylococcus aureus, 510, 360 h
[25] = system: Staphylococcus aureus; experiment: Antimicrobial activity against vancomycin-resistant Staphylococcus aureus 509 measured on day 15 by macrodilution method; conditions: Staphylococcus aureus, 509, 360 h
[26] = system: Staphylococcus aureus; experiment: Antimicrobial activity against heterogeneous vancomycin-intermediate Staphylococcus aureus 873 measured on day 20 by macrodilution method; conditions: Staphylococcus aureus, 873, 480 h
[27] = system: Staphylococcus aureus; experiment: Antimicrobial activity against vancomycin-intermediate Staphylococcus aureus 555 measured on day 20 by macrodilution method; conditions: Staphylococcus aureus, 555, 480 h
[28] = system: Staphylococcus aureus; experiment: Antimicrobial activity against vancomycin-intermediate Staphylococcus aureus 1287 measured on day 20 by macrodilution method; conditions: Staphylococcus aureus, 1287, 480 h
[29] = system: Staphylococcus aureus; experiment: Antimicrobial activity against methicillin-resistant Staphylococcus aureus 525 measured on day 20 by macrodilution method; conditions: Staphylococcus aureus, 525, 480 h
[30] = system: Staphylococcus aureus; experiment: Antimicrobial activity against vancomycin-resistant Staphylococcus aureus 510 measured on day 20 by macrodilution method; conditions: Staphylococcus aureus, 510, 480 h
[31] = system: Staphylococcus aureus; experiment: Antimicrobial activity against heterogeneous vancomycin-intermediate Staphylococcus aureus 168 measured on day 25 by macrodilution method; conditions: Staphylococcus aureus, 168, 600 h
[32] = system: Staphylococcus aureus; experiment: Antimicrobial activity against heterogeneous vancomycin-intermediate Staphylococcus aureus 873 measured on day 25 by macrodilution method; conditions: Staphylococcus aureus, 873, 600 h
[33] = system: Staphylococcus aureus; experiment: Antimicrobial activity against vancomycin-resistant Staphylococcus aureus 510 measured on day 25 by macrodilution method; conditions: Staphylococcus aureus, 510, 600 h
[34] = system: Staphylococcus aureus; experiment: Antimicrobial activity against vancomycin-resistant Staphylococcus aureus 509 measured on day 25 by macrodilution method; conditions: Staphylococcus aureus, 509, 600 h
[35] = system: Staphylococcus aureus; experiment: Antimicrobial activity against heterogeneous vancomycin-intermediate Staphylococcus aureus 168 measured on day 30 by macrodilution method
[36] = system: Staphylococcus aureus; experiment: Antimicrobial activity against methicillin-susceptible Staphylococcus aureus 540 measured on day 30 by macrodilution method
[37] = system: Staphylococcus aureus; experiment: Antimicrobial activity against vancomycin-resistant Staphylococcus aureus 510 measured on day 30 by macrodilution method
[38] = system: Staphylococcus aureus; experiment: Antimicrobial activity against heterogeneous vancomycin-intermediate Staphylococcus aureus 168 measured on day 35 by macrodilution method
[39] = system: Staphylococcus aureus; experiment: Antimicrobial activity against vancomycin-intermediate Staphylococcus aureus 555 measured on day 35 by macrodilution method
[40] = system: Staphylococcus aureus; experiment: Antimicrobial activity against vancomycin-intermediate Staphylococcus aureus 1287 measured on day 35 by macrodilution method
[41] = system: Staphylococcus aureus; experiment: Antimicrobial activity against methicillin-susceptible Staphylococcus aureus 540 measured on day 35 by macrodilution method
[42] = system: Staphylococcus aureus; experiment: Antimicrobial activity against methicillin-susceptible Staphylococcus aureus 543 measured on day 35 by macrodilution method
[43] = system: Staphylococcus aureus; experiment: Antimicrobial activity against vancomycin-resistant Staphylococcus aureus 509 measured on day 35 by macrodilution method
[44] = system: Staphylococcus aureus; experiment: Antimicrobial activity against heterogeneous vancomycin-intermediate Staphylococcus aureus 168 measured on day 40 by macrodilution method
[45] = system: Staphylococcus aureus; experiment: Antimicrobial activity against methicillin-susceptible Staphylococcus aureus 540 measured on day 40 by macrodilution method
[46] = system: Staphylococcus aureus; experiment: Antimicrobial activity against heterogeneous vancomycin-intermediate Staphylococcus aureus 873 measured on day 45 by macrodilution method
[47] = system: Staphylococcus aureus; experiment: Antimicrobial activity against vancomycin-resistant Staphylococcus aureus 510 measured on day 45 by macrodilution method
[48] = system: Staphylococcus aureus; experiment: Antimicrobial activity against vancomycin-intermediate Staphylococcus aureus 1287 measured on day 50 by macrodilution method
[49] = system: Staphylococcus aureus; experiment: Antimicrobial activity against methicillin-susceptible Staphylococcus aureus 543 measured on day 50 by macrodilution method

Measured: MIC

C[C@H]1C=C(c2csc(SC3=C(C(=O)O)N4C(=O)[C@H]([C@@H](C)O)[C@H]4[C@H]3C)n2)CN1 [RAZUPENEM]
1 µg/mL: [11] | [18]
0.5 µg/mL: [14] | [28]
0.06 µg/mL: [41] | [42] | [45] | [49]
0.03 µg/mL: [23]
8 µg/mL: [8] | [31] | [32] | [35] | [38] | [44] | [47]
0.016 µg/mL: [3] | [9] | [10] | [15] | [21]
0.25 µg/mL: [12] | [19]
2 µg/mL: [1] | [7] | [13] | [16] | [17] | [22] | [24] | [25] | [27] | [40]
16 µg/mL: [4] | [46]
4 µg/mL: all other assays above

Reference: ChEMBL document CHEMBL1649524, “Resistance selection studies comparing the activity of razupenem (PTZ601) to vancomycin and linezolid against eight methicillin-resistant and two methicillin-susceptible Staphylococcus aureus strains” (2009)
